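Tested at 5 concentrations; 48 h exposure; 96-well plates; endpoints linearly interpolated, else capped at highest concentration. GI50 = concentration required for 50% inhibition of growth. The concentration for full growth arrest is given as TGI.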
How the values were obtained:
Experiment in all cases: inhibition of tumour cell growth, NCI panel, 48 h
[1] = tested on: A549 NSCLC
[2] = tested on: HCT-15 colon
[3] = tested on: HOP-62 NSCLC
[4] = tested on: KM12 colon
[5] = tested on: MOLT-4 leukemia
[6] = tested on: NCI-H226 lung
[7] = tested on: SK-MEL-5 melanoma
[8] = tested on: SNB-19 CNS
[9] = tested on: UO-31 renal
[10] = tested on: T-47D breast

| SMILES | TGI [1] [µM] | TGI [2] [µM] | TGI [3] [µM] | TGI [4] [µM] | TGI [5] [µM] | TGI [6] [µM] | TGI [7] [µM] | TGI [8] [µM] | TGI [9] [µM] | GI50 [1] [µM] | GI50 [2] [µM] | GI50 [4] [µM] | GI50 [5] [µM] | GI50 [6] [µM] | GI50 [7] [µM] | GI50 [8] [µM] | GI50 [9] [µM] | TGI [10] [µM] | GI50 [3] [µM] | GI50 [10] [µM] |
| --- | --- | --- | --- | --- | --- | --- | --- | --- | --- | --- | --- | --- | --- | --- | --- | --- | --- | --- | --- | --- |
| COc1ccc(NC(=O)CCc2cc(C(C)(C)C)n[nH]2)cc1 | > 100 | > 100 | > 100 | > 100 | > 100 | > 100 | > 100 | > 100 | > 100 | – | – | – | – | – | – | – | – | – | – | – |
| CO[C@@H]1[C@H]2[C@@H](C)c3ccoc3C[C@@H]2[C@@]2(C)CC[C@H](OC(=O)c3ccccc3)[C@](C)(C(=O)O)[C@]2(O)[C@@H]1OC(=O)c1ccccc1 | > 50 | 16.3 | – | 33.5 | 38.4 | 26.7 | 13.7 | > 50 | > 50 | 10.6 | 7.93 | 8.83 | 9.67 | 9.77 | 7.21 | 16.1 | > 50 | – | – | – |
| C/C(CCn1[nH]c(=O)ccc1=O)=N\Nc1ccc([N+](=O)[O-])cc1[N+](=O)[O-] | > 100 | > 100 | > 100 | > 100 | > 100 | > 100 | > 100 | > 100 | > 100 | – | – | – | – | – | – | – | – | – | – | – |
| CCOC(=O)c1c2cccccc2n2c(=O)cc(C)nc12 | > 100 | > 100 | > 100 | > 100 | > 100 | > 100 | – | > 100 | > 100 | – | – | – | – | – | – | – | – | – | – | – |
| O=C(O)CCSC(=O)Nc1ccccc1Cl | > 100 | > 100 | > 100 | > 100 | > 100 | > 100 | > 100 | > 100 | > 100 | – | – | – | – | – | – | – | – | – | – | – |
| O=C(O)CCSC(=S)Nc1cccc(F)c1 | > 100 | > 100 | > 100 | > 100 | > 100 | > 100 | 43.5 | > 100 | > 100 | – | – | – | – | – | – | – | – | – | – | – |
| C=C1NC(=O)C(CC(C(=O)C(=O)Nc2c(C)cccc2C(C)(C)C)C(=O)c2ccc3ccccc3c2)C(=O)N1 (stereo not given) | > 100 | > 100 | – | > 100 | > 100 | > 100 | > 100 | > 100 | > 100 | – | – | – | – | – | – | – | – | > 100 | – | – |
| Cc1ccc(NC(=O)CC/C(CC(=O)C(C)(C)C)=N\Nc2ccc([N+](=O)[O-])cc2[N+](=O)[O-])cc1C | > 100 | > 100 | 61.9 | > 100 | > 100 | > 100 | – | > 100 | > 100 | – | – | – | – | – | – | – | – | – | – | – |
| COc1cc(CC(C(=O)O)C(=O)O)c(OC)cc1CC(C(=O)O)C(=O)O | > 100 | > 100 | > 100 | > 100 | > 100 | > 100 | > 100 | > 100 | > 100 | – | – | – | – | – | – | – | – | – | – | – |
| COc1cc2c(cc1OC)c1c(OC)c(OC)cc3c1c1c2sc(=S)n1CC3 | > 100 | > 100 | – | > 100 | > 100 | > 100 | > 100 | > 100 | > 100 | – | – | – | – | – | – | – | – | – | – | – |
| CC1=NN(C(=O)c2ccc(Cl)cc2)C(=O)/C1=C/c1ccco1 | > 100 | > 100 | > 100 | > 100 | > 100 | – | > 100 | > 100 | > 100 | – | – | – | – | – | – | – | – | – | – | – |
| CC1=C2[C@H](c3ccccc3)C3C=CC2(c2ccccc23)N(C(=O)C(c2ccccc2)c2ccccc2)C1=O (stereo not given in full) | > 100 | > 100 | > 100 | > 100 | > 100 | – | > 100 | > 100 | > 100 | – | – | – | – | – | – | – | – | – | – | – |
| COC(=O)C(C(=O)C(=O)Nc1ccc(OC)cc1[N+](=O)[O-])c1nc2cc(C)c(C)cc2[nH]c1=O (stereo not given) | > 100 | > 100 | > 100 | – | – | > 100 | > 100 | > 100 | > 100 | – | – | – | – | – | – | – | – | – | – | – |
| C=C1C(=O)OC2CC3(C)CCCC(C)C3=CC12 (stereo not given) | 26.8 | 5.08 | – | 25.1 | 9.04 | 30.3 | 4.6 | 25.8 | 12.5 | – | – | – | – | – | – | – | – | 11 | – | – |
| COc1ccc(CNc2cnc3cc(N)cc(N)c3n2)cc1 | 54.1 | 68.6 | > 100 | 67.6 | 43.2 | – | 35.2 | > 100 | 33.7 | 23 | 24.6 | 23.5 | 15.9 | – | 18.9 | 52.3 | 16.3 | > 100 | 35.9 | 73.8 |
| COc1cc(/C=C\c2ccc(OC(C)=O)cc2)cc(OC)c1OC | > 100 | – | > 100 | > 100 | > 100 | > 100 | – | > 100 | 28.7 | – | – | – | – | – | – | – | – | – | – | – |
| Nc1ccc2c(c1)Oc1c(F)c(F)cc3c(=O)c(C(=O)O)cn-2c13 | > 100 | > 100 | > 100 | > 100 | > 100 | – | 47.9 | > 100 | 93.7 | – | – | – | – | – | – | – | – | – | – | – |
| CC(=O)O/N=C(Cl)/C(Cl)=N/OC(C)=O | > 100 | > 100 | > 100 | > 100 | > 100 | > 100 | – | > 100 | > 100 | – | – | – | – | – | – | – | – | – | – | – |
| Cc1nc(Nc2ccccc2)sc1C(=O)CC(=O)C(=O)NC12CC3CC(CC(C3)C1)C2 | > 100 | > 100 | > 100 | > 100 | > 100 | > 100 | > 100 | > 100 | > 100 | – | – | – | – | – | – | – | – | – | – | – |
| COc1ccc(/C=c2/sc3n(c2=O)NC(c2ccc(Cl)cc2)NN=3)cc1 (stereo not given) | > 100 | – | – | > 100 | > 100 | > 100 | > 100 | > 100 | > 100 | – | – | – | – | – | – | – | – | – | – | – |
| CCOC(=O)NC(=O)c1cn(CCN2CCNCC2)c(=O)[nH]c1=O | > 100 | > 100 | > 100 | > 100 | > 100 | > 100 | > 100 | > 100 | – | – | – | – | – | – | – | – | – | – | – | – |
| Cc1c(C2Cc3ccccc3N2)c2ccccc2n1C (stereo not given) | > 100 | > 100 | > 100 | > 100 | > 100 | > 100 | > 100 | > 100 | > 100 | – | – | – | – | – | – | – | – | – | – | – |

— PubChem BioAssay (NCI)
